This is an account of results in patent US20230126310A1 (priority 2020, published 2023).

The subject of data set [1] is SARS-CoV-2 (BetaCov/Belgium/GHB-03021/2020). In words: microbe, parasite or virus in culture. The format is cell-based. To be noted: for Emax / IC50: Severe acute respiratory syndrome coronavirus 2, 120 h; for Emax: read-out: Maximum confluence reached (%).
The test system of data set [2] is SARS-CoV-2. As to the kind of experiment: microbe, parasite or virus in culture. Particulars: Severe acute respiratory syndrome coronavirus 2, Caco-2, 48 h; for inhibition at 10 µM: read-out: % Inh. (% Inhibition of SARS-CoV-2).
In data set [3] the test system is SARS-CoV-2. To be noted: comparative experiments, Examples 1 and 2.
A short description of data set [4]: Compound cytotoxicity against CaCo-2 cells at 48 hours. The format is cell-based, Human. To be noted: human, CaCo-2 cells. As to the method:
The cytotoxicity of the profiled compounds towards CaCo-2 cells at 48 hours was assessed. […] After 48 hours, cytotoxicity was evaluated using both digital phase contrast readout as described above and ATP determination (Cell titre-glo, Promega Corp).

The mark [5] stands for this setting: comparative experiments, 48 hours.
Setting [6] is: Table 5, further results of Examples 1 and 2, mean ± spread.

In general, inhibition refers to the relative decrease from the control value, in per cent. The term CC50 denotes the concentration at which the toxic effect on the cells reaches its halfway point. A high value points to better tolerance by the cells.

Where a name gives a salt, the structure may show the parent alone. Read-outs that look alike come from different tables or passages of the source.

`Cc1ccc(NC(=O)c2ccc(CN3CCN(C)CC3)cc2)cc1Nc1nc(-c2cccnc2)cs1` [Masitinib (AB1010), Masitinib]: the Emax in data set [1] amounted to 57.1%. Further, the inhibition at 10 µM in data set [2] amounted to 108%.

In the case of `CC(C)C(=O)OCC(=O)[C@@]12O[C@H](C3CCCCC3)O[C@@H]1C[C@H]1[C@@H]3CCC4=CC(=O)C=C[C@]4(C)[C@H]3[C@@H](O)C[C@@]12C` [Ciclesonide], in data set [1], the IC50 came to 47 µM and the Emax turned out to be 35.2%. Also, the inhibition at 10 µM in data set [2] was determined as 85.4%.

With `O=C(CCCN1CCC2(CC1)C(=O)N(Cc1cccc(F)c1)CN2c1ccccc1)c1ccc(F)cc1.O=C(O)/C=C\C(=O)O` [3′-fluorobenzylspiperone], the “Maximum confluence reached (%)” value in data set [1] is recorded as 43.04%.

Consider `C[C@@H]1C[C@@H]([C@H](O)CC2CC(=O)NC(=O)C2)C(=O)[C@@H](C)C1` [CYCLOHEXIMIDE], for which the Emax in data set [1] came out at 63.7%.

As to `CCCCN(CCCC)CCC(O)c1cc2c(Cl)cc(Cl)cc2c2cc(C(F)(F)F)ccc12` (stereo not drawn) [Halofantrine], the Emax in data set [1] came to 51.8%. Also, in data set [2], the inhibition at 10 µM came to 91.4%.

For `N=C(N)c1ccc2cc(OC(=O)c3ccc(N=C(N)N)cc3)ccc2c1` [Nafamostat mesylate], in data set [3], the “% Inh (% inhibition of virus infection)” value was 89.8%. Further, in data set [4] (setting [5]), the cytotoxic concentration (CC50) at 48 h was over 20 µM.

In the case of `Nc1nc2nc[nH]c2c(=S)[nH]1` [TIOGUANINE], the “% Inh (% inhibition of virus infection)” value in data set [3] worked out at 99.9%. Half-maximal cytotoxicity in data set [4] (setting [5]) (CC50 at 48 h) was put at 2.21 ± 1.48 µM.

For the compound `NC(=O)c1nnn(Cc2cc(Cl)c(C(=O)c3ccc(Cl)cc3)c(Cl)c2)c1N` [carboxyamidotriazole], the “% Inh (% inhibition of virus infection)” value in data set [3] came to 135.1%. The cytotoxic concentration (CC50) at 48 h in data set [4] (setting [5]) stood at 0.11 ± 0.04 µM.

As for `CN(C)C(=O)COC(=O)Cc1ccc(OC(=O)c2ccc(NC(=N)N)cc2)cc1` [Camostat Mesilate (FOY-305), Camostat Mesilate], the “% Inh (% inhibition of virus infection)” value in data set [3] stood at 86.9%. In data set [4] (setting [5]), the CC50 at 48 h was over 20 µM.

As for `Cc1cc(-c2ncc(CC(=O)Nc3ccc(-c4cnccn4)cn3)cc2C)ccn1` [LGK-974], the CC50 at 48 h in data set [4] (setting [6]) came out at 7.61 ± 0.06 µM. Further, in data set [2], the IC50 was 2.33 µM and the inhibition at 10 µM was 105%. For the same compound, the IC50 in data set [2] (read-out: pIC50 (converted)) is 2.34 µM.

For `OC(c1cc(C(F)(F)F)nc2c(C(F)(F)F)cccc12)C1CCCCN1` (stereo not drawn) [MEFLOQUINE HYDROCHLORIDE], the CC50 at 48 h in data set [4] (setting [6]) was 33 ± 7.96 µM. Besides, the IC50 in data set [2] was 28.9 µM; in data set [2] (read-out: pIC50 (converted)), 28.8 µM. Besides, the inhibition at 10 µM in data set [2] is 93.3%.

As to `CCOC(=O)O[C@]1(C(=O)OCCl)CC[C@H]2[C@@H]3CCC4=CC(=O)C=C[C@]4(C)[C@H]3[C@@H](O)C[C@@]21C` [Loteprednol etabonate], the CC50 at 48 h in data set [4] (setting [6]) came out at 49 ± 45.9 µM. Besides, in data set [2], the IC50 amounted to 21.3 µM and the inhibition at 10 µM was found to be 102%. Moreover, the IC50 in data set [2] (read-out: pIC50 (converted)) was 21.4 µM.

For the compound `O=C(Nc1nc(-c2cc(Cl)cs2)c(N2CCN(C3CCCCC3)CC2)s1)c1cnc(N2CCC(C(=O)O)CC2)c(Cl)c1` [Avatrombopag], it took 20.9 ± 29.5 µM to reach half-maximal cytotoxicity in data set [4] (setting [6]) (CC50 at 48 h). In data set [2], the IC50 is 7.17 µM and the inhibition at 10 µM was 95.9%. The IC50 in data set [2] (read-out: pIC50 (converted)) is 7.24 µM.

Turning to `CNC(=O)c1ccc(C)c(-n2c(C)cc(OCc3ccc(F)cc3F)c(Br)c2=O)c1` [PH-797804], the cytotoxic concentration (CC50) at 48 h in data set [4] (setting [6]) was 20 ± 3.1 µM. In data set [2], the IC50 came out at 20.7 µM and the inhibition at 10 µM was 81.5%. The IC50 in data set [2] (read-out: pIC50 (converted)) is 20.4 µM.

With `NS(=O)(=O)OC[C@@H]1C[C@@H](n2ccc3c(N[C@H]4CCc5ccccc54)ncnc32)C[C@@H]1O` [Pevonedistat hydrochloride], the “% Inh (% inhibition of virus infection)” value in data set [3] stood at 75.1%. Further, the midpoint of cytotoxicity in data set [4] (setting [5]), the CC50 at 48 h, lay at 222 ± 332 µM.

Regarding `CC/C(=C(\c1ccc(O)cc1)c1ccc(OCCNC)cc1)c1ccccc1` [Endoxifen HCl], in data set [1], the IC50 is 6.34 µM and the Emax came out at 35.7%.

For `CC(C)c1cc(C(C)C)c(CC(=O)NS(=O)(=O)Oc2c(C(C)C)cccc2C(C)C)c(C(C)C)c1` [Avasimibe (CI-1011), Avasimibe], it took 13.7 ± 6.18 µM to reach half-maximal cytotoxicity in data set [4] (setting [6]) (CC50 at 48 h). Also, the IC50 in data set [2] is 10.9 µM; in data set [2] (read-out: pIC50 (converted)), 11 µM. Also, the inhibition at 10 µM in data set [2] stood at 91.4%.
